According to patent publication US10206400B2, “Insecticidal compounds based on isoxazoline derivatives” (Syngenta Crop Protection LLC, priority 2009, dated 2019):

Tests used:
Assay type in all cases: in vivo
Diabrotica balteata = Diabrotica balteata (corn root worm) artificial diet test; settings: 120 h, 200 ppm (concentration in well 18 ppm), L2 larvae, 5 days, larval mortality, growth regulation
Method: (§1) A 24-well microtiter plate (MTP) with artificial diet was treated with test solutions at an application rate of 200 ppm (concentration in well 18 ppm) by pipetting. After drying, the MTP's were infested with L2 larvae (6-10 per well). After an incubation period of 5 days, samples were checked for larval mortality and growth regulation.

Spodoptera littoralis = Spodoptera littoralis (Egyptian cotton leafworm) leaf disc spray test; settings: foliar, 72 h, 200 ppm spray on cotton leaf discs, L1 larvae, mortality, feeding behavior, growth regulation 3 days after treatment
Excerpt: Cotton leaf discs were placed on agar in a 24-well microtiter plate and sprayed with test solutions at an application rate of 200 ppm. After drying, the leaf discs were infested with 5 L1 larvae. The samples were checked for mortality, feeding behavior, and growth regulation 3 days after treatment (DAT).

Heliothis virescens = Heliothis virescens (tobacco budworm) egg/artificial diet test; settings: 96 h, 200 ppm (concentration in well 18 ppm), eggs 0-24 h old on artificial diet, 4 days, egg mortality, larval mortality, growth regulation
Method: Eggs (0-24 h old) were placed in 24-well microtiter plate on artificial diet and treated with test solutions at an application rate of 200 ppm (concentration in well 18 ppm) by pipetting. After an incubation period of 4 days, samples were checked for egg mortality, larval mortality, and growth regulation.

Myzus persicae = Myzus persicae (green peach aphid), systemic test; settings: 144 h, roots of infested pea seedlings in test solution, 6 days, mortality, special effects on the plant
Excerpt: Myzus persicae (Green peach aphid), systemic test: Roots of pea seedlings, infested with an aphid population of mixed ages, are placed directly in the test solutions at an application rate of 12.5 ppm. 6 days after introduction, samples are checked for mortality and special effects on the plant. The following compounds gave at least 80% control of Myzus persicae: A3, B2, B3, B5, B6, B7, B8, B11, B12, C1, C2, C3,C4, C5, C6, C7, D1, E1, E2, G1, G3, G5, G6, H1, H5, H6, H9, H10, H11, H12, H13, H14, H18, H19, H20, H24, H25, and H26.

Plutella xylostella = Plutella xylostella (diamond back moth) artificial diet test; settings: 144 h, 200 ppm (concentration in well 18 ppm), L2 larvae, 6 days, larval mortality, growth regulation
Method: as §1, with “24-well” for “A 24-well”, “(7-12” for “(6-10”, “6” for “5”

Tetranychus urticae = Tetranychus urticae (two-spotted spider mite) leaf disc spray test; settings: foliar, 192 h, 200 ppm spray on bean leaf discs, mixed ages, 8 days, egg, larval and adult mortality
Excerpt: Bean leaf discs on agar in 24-well microtiter plates were sprayed with test solutions at an application rate of 200 ppm. After drying, the leaf discs are infested with mite populations of mixed ages. 8 days later, discs are checked for egg mortality, larval mortality, and adult mortality.

Thrips tabaci = Thrips tabaci (onion thrips) leaf disc spray test; settings: foliar, 168 h, 200 ppm spray on sunflower leaf discs, mixed ages, 7 days, mortality
Method: [The procedure below names another target; the source lists this target under the same test.] Sunflower leaf discs were placed on agar in a 24-well microtiter plate and sprayed with test solutions at an application rate of 200 ppm. After drying, the leaf discs were infested with an […] population of mixed ages. After an incubation period of 7 days, samples were checked for mortality.

C#CCN1OC[C@@H](NC(=O)c2ccc(C3=NOC(c4cc(Cl)cc(Cl)c4)(C(F)(F)F)C3)cc2C)C1=O (stereo partly drawn) [Compound B3, 4-[5-(3,5-Dichloro-phenyl)-5-trifluoromethyl-4,5-dihydro-isoxazol-3-yl]-2-methyl-N-((R)-2-propargyl-3-oxo-isoxazolidin-4-yl)-benzamide]
≥ 80%: pest or weed control at 200 ppm (Diabrotica balteata) | pest or weed control at 200 ppm (Spodoptera littoralis) | pest or weed control at 200 ppm (Heliothis virescens) | pest or weed control at 12.5 ppm (Myzus persicae) | pest or weed control at 200 ppm (Plutella xylostella) | pest or weed control at 200 ppm (Tetranychus urticae) | pest or weed control at 200 ppm (Thrips tabaci)

CCN1OC[C@@H](NC(=O)c2ccc(C3=NOC(c4cc(Cl)cc(Cl)c4)(C(F)(F)F)C3)cc2C)C1=O (stereo partly drawn) [Compound B6, 4-[5-(3,5-Dichloro-phenyl)-5-trifluoromethyl-4,5-dihydro-isoxazol-3-yl]-2-methyl-N-((R)-2-ethyl-3-oxo-isoxazolidin-4-yl)-benzamide]
≥ 80%: pest or weed control at 200 ppm (Diabrotica balteata) | pest or weed control at 200 ppm (Spodoptera littoralis) | pest or weed control at 200 ppm (Heliothis virescens) | pest or weed control at 12.5 ppm (Myzus persicae) | pest or weed control at 200 ppm (Plutella xylostella) | pest or weed control at 200 ppm (Tetranychus urticae) | pest or weed control at 200 ppm (Thrips tabaci)

COCCN1OC[C@@H](NC(=O)c2ccc(C3=NOC(c4cc(Cl)cc(Cl)c4)(C(F)(F)F)C3)cc2C)C1=O (stereo partly drawn) [Compound B7, 4-[5-(3,5-Dichloro-phenyl)-5-trifluoromethyl-4,5-dihydro-isoxazol-3-yl]-2-methyl-N-((R)-2-(2-methoxyethyl)-3-oxo-isoxazolidin-4-yl)-benzamide]
≥ 80%: pest or weed control at 200 ppm (Diabrotica balteata) | pest or weed control at 200 ppm (Spodoptera littoralis) | pest or weed control at 200 ppm (Heliothis virescens) | pest or weed control at 12.5 ppm (Myzus persicae) | pest or weed control at 200 ppm (Plutella xylostella) | pest or weed control at 200 ppm (Tetranychus urticae) | pest or weed control at 200 ppm (Thrips tabaci)

CCCCN1OC[C@@H](NC(=O)c2ccc(C3=NOC(c4cc(Cl)cc(Cl)c4)(C(F)(F)F)C3)cc2C)C1=O (stereo partly drawn) [Compound B8, 4-[5-(3,5-Dichloro-phenyl)-5-trifluoromethyl-4,5-dihydro-isoxazol-3-yl]-2-methyl-N-((R)-2-butyl-3-oxo-isoxazolidin-4-yl)-benzamide]
≥ 80%: pest or weed control at 200 ppm (Diabrotica balteata) | pest or weed control at 200 ppm (Spodoptera littoralis) | pest or weed control at 200 ppm (Heliothis virescens) | pest or weed control at 12.5 ppm (Myzus persicae) | pest or weed control at 200 ppm (Plutella xylostella) | pest or weed control at 200 ppm (Tetranychus urticae) | pest or weed control at 200 ppm (Thrips tabaci)

Cc1cc(C2=NOC(c3cc(Cl)cc(Cl)c3)(C(F)(F)F)C2)ccc1C(=O)N[C@@H]1CON(C2COC2)C1=O (stereo partly drawn) [Compound B12, 4-[5-(3,5-Dichloro-phenyl)-5-trifluoromethyl-4,5-dihydro-isoxazol-3-yl]-2-methyl-N-((R)-2-(oxetan-3-yl)-3-oxo-isoxazolidin-4-yl)-benzamide]
≥ 80%: pest or weed control at 200 ppm (Diabrotica balteata) | pest or weed control at 200 ppm (Spodoptera littoralis) | pest or weed control at 200 ppm (Heliothis virescens) | pest or weed control at 12.5 ppm (Myzus persicae) | pest or weed control at 200 ppm (Plutella xylostella) | pest or weed control at 200 ppm (Tetranychus urticae) | pest or weed control at 200 ppm (Thrips tabaci)

CCN1OC[C@@H](NC(=O)c2ccc(C3=NOC(c4cc(Cl)c(Cl)c(Cl)c4)(C(F)(F)F)C3)cc2C)C1=O (stereo partly drawn) [Compound C1, 4-[5-(3,4,5-Trichloro-phenyl)-5-trifluoromethyl-4,5-dihydro-isoxazol-3-yl]-2-methyl-N-((R)-2-ethyl-3-oxo-isoxazolidin-4-yl)-benzamide]
≥ 80%: pest or weed control at 200 ppm (Diabrotica balteata) | pest or weed control at 200 ppm (Spodoptera littoralis) | pest or weed control at 200 ppm (Heliothis virescens) | pest or weed control at 12.5 ppm (Myzus persicae) | pest or weed control at 200 ppm (Plutella xylostella) | pest or weed control at 200 ppm (Tetranychus urticae) | pest or weed control at 200 ppm (Thrips tabaci)

CCN1OC[C@@H](NC(=O)c2ccc(C3=NOC(c4cc(Cl)c(Br)c(Cl)c4)(C(F)(F)F)C3)cc2C)C1=O (stereo partly drawn) [Compound C2, 4-[5-(3,5-Dichloro-4-bromo-phenyl)-5-trifluoromethyl-4,5-dihydro-isoxazol-3-yl]-2-methyl-N-((R)-2-ethyl-3-oxo-isoxazolidin-4-yl)-benzamide]
≥ 80%: pest or weed control at 200 ppm (Diabrotica balteata) | pest or weed control at 200 ppm (Spodoptera littoralis) | pest or weed control at 200 ppm (Heliothis virescens) | pest or weed control at 12.5 ppm (Myzus persicae) | pest or weed control at 200 ppm (Plutella xylostella) | pest or weed control at 200 ppm (Tetranychus urticae) | pest or weed control at 200 ppm (Thrips tabaci)

CCN1OC[C@@H](NC(=O)c2ccc(C3=NOC(c4cc(Cl)c(F)c(Cl)c4)(C(F)(F)F)C3)cc2C)C1=O (stereo partly drawn) [Compound C3, 4-[5-(3,5-Dichloro-4-fluoro-phenyl)-5-trifluoromethyl-4,5-dihydro-isoxazol-3-yl]-2-methyl-N-((R)-2-ethyl-3-oxo-isoxazolidin-4-yl)-benzamide]
≥ 80%: pest or weed control at 200 ppm (Diabrotica balteata) | pest or weed control at 200 ppm (Spodoptera littoralis) | pest or weed control at 200 ppm (Heliothis virescens) | pest or weed control at 12.5 ppm (Myzus persicae) | pest or weed control at 200 ppm (Plutella xylostella) | pest or weed control at 200 ppm (Tetranychus urticae) | pest or weed control at 200 ppm (Thrips tabaci)

CCN1OC[C@@H](NC(=O)c2ccc(C3=NOC(c4cc(F)cc(Cl)c4)(C(F)(F)F)C3)cc2C)C1=O (stereo partly drawn) [Compound C5, 4-[5-(3-chloro-5-fluoro-phenyl)-5-trifluoromethyl-4,5-dihydro-isoxazol-3-yl]-2-methyl-N-((R)-2-ethyl-3-oxo-isoxazolidin-4-yl)-benzamide]
≥ 80%: pest or weed control at 200 ppm (Diabrotica balteata) | pest or weed control at 200 ppm (Spodoptera littoralis) | pest or weed control at 200 ppm (Heliothis virescens) | pest or weed control at 12.5 ppm (Myzus persicae) | pest or weed control at 200 ppm (Plutella xylostella) | pest or weed control at 200 ppm (Tetranychus urticae) | pest or weed control at 200 ppm (Thrips tabaci)

Cc1cc(C2=NOC(c3cc(Cl)cc(Cl)c3)(C(F)(F)F)C2)ncc1C(=O)N[C@@H]1CON(CC(F)(F)F)C1=O (stereo partly drawn) [Compound C6, 6-[5-(3,5-Dichloro-phenyl)-5-trifluoromethyl-4,5-dihydro-isoxazol-3-yl]-4-methyl-N— [(R)-3-oxo-2-(2,2,2-trifluoro-ethyl)-isoxazolidin-4-yl]-nicotinamide]
≥ 80%: pest or weed control at 200 ppm (Diabrotica balteata) | pest or weed control at 200 ppm (Spodoptera littoralis) | pest or weed control at 200 ppm (Heliothis virescens) | pest or weed control at 12.5 ppm (Myzus persicae) | pest or weed control at 200 ppm (Plutella xylostella) | pest or weed control at 200 ppm (Tetranychus urticae) | pest or weed control at 200 ppm (Thrips tabaci)

CCN1CC(CNC(=O)c2ccc(C3=NOC(c4cc(Cl)cc(Cl)c4)(C(F)(F)F)C3)cc2C)CS1(=O)=O (stereo not shown) [Compound D1, 4-[5-(3,5-Dichloro-phenyl)-5-trifluoromethyl-4,5-dihydro-isoxazol-3-yl]-N-(2-ethyl-1,1-dioxo-1lambda*6*-isothiazolidin-4-ylmethyl)-2-methl-benzamide]
≥ 80%: pest or weed control at 200 ppm (Diabrotica balteata) | pest or weed control at 200 ppm (Spodoptera littoralis) | pest or weed control at 200 ppm (Heliothis virescens) | pest or weed control at 12.5 ppm (Myzus persicae) | pest or weed control at 200 ppm (Plutella xylostella) | pest or weed control at 200 ppm (Tetranychus urticae) | pest or weed control at 200 ppm (Thrips tabaci)

Cc1cc(C2=NOC(c3cc(Cl)cc(Cl)c3)(C(F)(F)F)C2)ccc1C(=O)N[C@H]1CON(C)C1=O (stereo partly drawn) [Compound E1, 4-[5-(3,5-Dichloro-phenyl)-5-trifluoromethyl-4,5-dihydro-isoxazol-3-yl]-2-methyl-N-((S)-2-methyl-3-oxo-isoxazolidin-4-yl)-benzamide]
≥ 80%: pest or weed control at 200 ppm (Diabrotica balteata) | pest or weed control at 200 ppm (Spodoptera littoralis) | pest or weed control at 200 ppm (Heliothis virescens) | pest or weed control at 12.5 ppm (Myzus persicae) | pest or weed control at 200 ppm (Plutella xylostella) | pest or weed control at 200 ppm (Tetranychus urticae) | pest or weed control at 200 ppm (Thrips tabaci)

CCN1OC[C@H](NC(=O)c2ccc(C3=NOC(c4cc(Cl)cc(Cl)c4)(C(F)(F)F)C3)cc2C)C1=O (stereo partly drawn) [Compound E2, 4-[5-(3,5-Dichloro-phenyl)-5-trifluoromethyl-4,5-dihydro-isoxazol-3-yl]-2-methyl-N-((S)-2-ethyl-3-oxo-isoxazolidin-4-yl)-benzamide]
≥ 80%: pest or weed control at 200 ppm (Diabrotica balteata) | pest or weed control at 200 ppm (Spodoptera littoralis) | pest or weed control at 200 ppm (Heliothis virescens) | pest or weed control at 12.5 ppm (Myzus persicae) | pest or weed control at 200 ppm (Plutella xylostella) | pest or weed control at 200 ppm (Tetranychus urticae) | pest or weed control at 200 ppm (Thrips tabaci)
